The text below walks through data of US20260297081A1, “COMPOUNDS AND METHODS OF TREATING CANCERS” (Cullgen Inc., priority 2023, published 2026).

Format in all cases: cell-based
For assay [1], the target named is T1, CDK4 (Homo sapiens, UniProt P11802+Q16531). Kind of assay: CDK4 percentage degradation in Calu-1 cells (Table 6). More on the design: Cells that express cyclin D1-3 and CDK4/6 proteins were treated with heterobifunctional compounds; endogenous in cells; host or cells: Calu-1. Conditions: 16 hours; for inhibition at 0.04 µM: 40 nM; for inhibition at 0.2 µM: 200 nM. The method, boiled down:
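Percentage degradation of Cyclin D1 and CDK4 derived from densitometry of ECL Western blots on lysates of Calu-1 cells. Treatment was 16 h with compound at either 40 nM or 200 nM.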
Target sequence in this assay (P11802 2-303 limits assumed): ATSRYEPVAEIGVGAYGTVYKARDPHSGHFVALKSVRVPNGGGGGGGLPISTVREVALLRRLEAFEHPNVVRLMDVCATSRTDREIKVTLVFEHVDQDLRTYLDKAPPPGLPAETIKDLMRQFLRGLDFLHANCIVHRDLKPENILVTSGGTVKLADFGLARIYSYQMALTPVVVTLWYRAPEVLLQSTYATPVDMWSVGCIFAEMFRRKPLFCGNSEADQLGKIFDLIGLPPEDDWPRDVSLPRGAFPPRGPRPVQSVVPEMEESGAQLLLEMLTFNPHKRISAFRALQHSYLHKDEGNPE
Target sequence in this assay (P24385 whole entry partner): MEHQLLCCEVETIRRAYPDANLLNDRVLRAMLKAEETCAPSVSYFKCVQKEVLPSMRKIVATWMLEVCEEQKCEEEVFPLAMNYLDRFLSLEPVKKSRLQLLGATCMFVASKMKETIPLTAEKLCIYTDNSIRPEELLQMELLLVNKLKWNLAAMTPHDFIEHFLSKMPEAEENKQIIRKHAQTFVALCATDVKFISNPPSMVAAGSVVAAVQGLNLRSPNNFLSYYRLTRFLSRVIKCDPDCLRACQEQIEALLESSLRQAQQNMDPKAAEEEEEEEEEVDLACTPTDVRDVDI
Target sequence in this assay (Q16531 2-1140 limits assumed): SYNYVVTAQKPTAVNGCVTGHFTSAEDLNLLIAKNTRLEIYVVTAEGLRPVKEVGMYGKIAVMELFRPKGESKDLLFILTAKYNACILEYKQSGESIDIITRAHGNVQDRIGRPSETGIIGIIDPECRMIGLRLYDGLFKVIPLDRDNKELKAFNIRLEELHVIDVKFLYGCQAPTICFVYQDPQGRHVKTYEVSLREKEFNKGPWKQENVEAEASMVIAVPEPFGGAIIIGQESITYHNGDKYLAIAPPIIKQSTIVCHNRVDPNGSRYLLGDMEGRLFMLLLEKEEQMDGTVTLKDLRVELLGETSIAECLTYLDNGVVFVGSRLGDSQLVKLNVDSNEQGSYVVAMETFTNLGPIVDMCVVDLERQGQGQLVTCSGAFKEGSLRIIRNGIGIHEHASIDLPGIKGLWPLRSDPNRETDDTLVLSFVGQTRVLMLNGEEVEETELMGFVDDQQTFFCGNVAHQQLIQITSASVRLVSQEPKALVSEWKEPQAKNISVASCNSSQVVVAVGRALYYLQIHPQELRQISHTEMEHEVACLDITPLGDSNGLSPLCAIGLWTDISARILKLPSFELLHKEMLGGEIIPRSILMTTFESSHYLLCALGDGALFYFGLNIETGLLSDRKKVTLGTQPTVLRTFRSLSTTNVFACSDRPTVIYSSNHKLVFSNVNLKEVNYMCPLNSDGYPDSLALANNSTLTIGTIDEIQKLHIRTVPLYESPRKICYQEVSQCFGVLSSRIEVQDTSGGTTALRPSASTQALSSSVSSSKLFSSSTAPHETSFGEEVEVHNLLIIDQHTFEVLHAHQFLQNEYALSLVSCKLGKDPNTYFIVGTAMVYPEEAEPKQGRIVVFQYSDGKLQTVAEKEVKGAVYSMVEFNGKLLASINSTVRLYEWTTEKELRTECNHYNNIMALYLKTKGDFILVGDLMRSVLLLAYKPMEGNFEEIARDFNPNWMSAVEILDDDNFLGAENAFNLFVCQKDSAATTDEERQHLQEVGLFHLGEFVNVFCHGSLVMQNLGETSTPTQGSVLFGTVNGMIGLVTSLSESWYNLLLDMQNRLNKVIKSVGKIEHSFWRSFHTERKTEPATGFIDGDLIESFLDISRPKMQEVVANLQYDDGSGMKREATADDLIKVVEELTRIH

Assay [2] has as its target T1, CDK4. Kind of assay: HiBiT detection of HiBiT-tagged CDK4 protein level in MCF7 cells, 16 hours (Table 8). More on the design: expressed in transfected cells; host or cells: MCF7. Conditions: MCF7 cells stably expressing HiBiT tagged target proteins; for activity at 0.01 µM: 10 nM, read-out: % CDK4 Relative Level (10 nM); for activity at 0.1 µM: 100 nM, read-out: % CDK4 Relative Level (100 nM). As to the method:
HiBiT detection system quantitatively measures total amounts of HiBiT-tagged proteins using a luminescent based method. MCF7 cells stably expressing HiBiT tagged target proteins were treated with heterobifunctional compounds at indicated concentrations for 16 hours, then lysed with Nano-Glo HiBiT Lytic detection reagents.
Target sequence in this assay (P11802 whole entry): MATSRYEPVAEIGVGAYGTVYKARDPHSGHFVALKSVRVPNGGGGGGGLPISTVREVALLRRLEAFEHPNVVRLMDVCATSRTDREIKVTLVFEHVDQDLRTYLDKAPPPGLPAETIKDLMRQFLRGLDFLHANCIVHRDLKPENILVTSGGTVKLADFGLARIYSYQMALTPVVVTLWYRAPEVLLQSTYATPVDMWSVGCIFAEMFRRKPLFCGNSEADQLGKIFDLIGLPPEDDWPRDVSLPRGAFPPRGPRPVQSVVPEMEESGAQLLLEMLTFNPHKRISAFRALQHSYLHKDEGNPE
Target sequence in this assay (P24385 whole entry partner): as the sequence (P24385 whole entry partner) above
Target sequence in this assay (Q16531 2-1140 limits assumed): as the sequence (Q16531 2-1140 limits assumed) above
For orientation: With HiBiT, luminescence reflects the tagged protein that the partner subunit can reach.

Another assay deals with MCF7 cells. Kind of assay: Anti-proliferation (viability) of MCF7 cells (Table 7, FIG. 2B). Conditions: Homo sapiens, MCF7, MCF7 cells, 3-6 days, 10-point serial dilution; read-out: GI IC50 in MCF-7.
Another assay has as its system Calu-1 cells. Kind of assay: Anti-proliferation (viability) of NSCLC Calu-1 cells, 3 days (Table 7, FIG. 2B). Conditions: Homo sapiens, 72 h; Calu-1 cells, 3 days, 10-point serial dilution; read-out: GI IC50 in Calu-1. As to the method: To evaluate anti-proliferation activities of heterobifunctional compounds, NSCLC Calu-1 or ER+ breast cancer T47D cells were treated with selected heterobifunctional compounds following a 10-point serial dilution for 3 or 6 days, respectively.
To verify that heterobifunctional compound-mediated degradation is dependent on the binding to CDK4-cyclin D complex, a negative control compound, CPD-143, which is derived from active heterobifunctional compound CPD-10 was designed. CPD-143 bears the same DDB1 ligand and linker as CPD-10 but with a modified warhead to impair the binding of the control compound to CDK4.

In general, inhibition refers to the change of the read-out against control, counted positive when it falls. The low end stands for a response near the control, the high end for a response far below the control. As a reminder, the IC50 is the concentration needed to halve the response being measured.

With `CC(=O)c1c(C)c2cnc(Nc3ccc(N4CCN(CCC(=O)N5CC6(CC(Nc7nc(NC(C)C)ccc7C(=O)Nc7cc(C)n(C)n7)C6)C5)CC4)cn3)nc2n(C2CCCC2)c1=O` [CPD-302, 2-((2-(3-(4-(6-((6-acetyl-8-cyclopentyl-5-methyl-7-oxo-7,8-dihydropyrido[2,3-d]pyrimidin-2-yl)amino)pyridin-3-yl)piperazin-1-yl)propanoyl)-2-azaspiro[3.3]heptan-6-yl)amino)-N-(1,5-dimethyl-1H-pyrazol-3-yl)-6-(isopropylamino)nicotinamide], on CDK4 [1], the inhibition at 0.04 µM was below 30% and the inhibition at 0.2 µM is below 30%. In addition, at CDK4 [2], the activity at 0.01 µM is 55 to 85% and the activity at 0.1 µM was in the range of 55 to 85%. Also, in the assay on MCF7 cells, the concentration for half-maximal inhibition (IC50) is below 50 nM.

At CDK4 [1], `CC(=O)c1c(C)c2cnc(Nc3ccc(N4CCN(CCC(=O)N5CC6(CC(Nc7nc(NC(C)C)ccc7C(=O)Nc7ccc(N(C)C)nn7)C6)C5)CC4)cn3)nc2n(C2CCCC2)c1=O` [CPD-305, 2-((2-(3-(4-(6-((6-acetyl-8-cyclopentyl-5-methyl-7-oxo-7,8-dihydropyrido[2,3-d]pyrimidin-2-yl)amino)pyridin-3-yl)piperazin-1-yl)propanoyl)-2-azaspiro[3.3]heptan-6-yl)amino)-N-(6-(dimethylamino)pyridazin-3-yl)-6-(isopropylamino)nicotinamide] displayed an inhibition at 0.04 µM of 30 to 50% and an inhibition at 0.2 µM of 30 to 50%. Moreover, at CDK4 [2], the activity at 0.01 µM lay within 55 to 85% and the activity at 0.1 µM lay within 55 to 85%. Besides, the IC50 in the assay on MCF7 cells was below 50 nM.

At CDK4 [1], `CC(=O)c1c(C)c2cnc(Nc3ccc(N4CCN(CC5(C(=O)N6CC7(CC(Nc8nc(NC(C)C)ccc8C(=O)Nc8ccc(N(C)C)nn8)C7)C6)CC5)CC4)cn3)nc2n(C2CCCC2)c1=O` [CPD-306, 2-((2-(1-((4-(6-((6-acetyl-8-cyclopentyl-5-methyl-7-oxo-7,8-dihydropyrido[2,3-d]pyrimidin-2-yl)amino)pyridin-3-yl)piperazin-1-yl)methyl)cyclopropane-1-carbonyl)-2-azaspiro[3.3]heptan-6-yl)amino)-N-(6-(dimethylamino)pyridazin-3-yl)-6-(isopropylamino)nicotinamide] had an inhibition at 0.04 µM of 30 to 50% and an inhibition at 0.2 µM of 30 to 50%. Also, on CDK4 [2], the activity at 0.01 µM lay in the range of 55 to 85% and the activity at 0.1 µM lay in the range of 55 to 85%. Further, in the assay on MCF7 cells, the IC50 was below 50 nM.

At CDK4 [1], `CC(=O)c1c(C)c2cnc(Nc3ccc(N4CCN(C(C)CC(=O)N5CC6(CC(Nc7nc(NC(C)C)ccc7C(=O)Nc7cn(C)c(C8CC8)n7)C6)C5)CC4)cn3)nc2n(C2CCCC2)c1=O` (stereo not drawn) [CPD-338, 2-((2-(3-(4-(6-((6-acetyl-8-cyclopentyl-5-methyl-7-oxo-7,8-dihydropyrido[2,3-d]pyrimidin-2-yl)amino)pyridin-3-yl)piperazin-1-yl)butanoyl)-2-azaspiro[3.3]heptan-6-yl)amino)-N-(2-cyclopropyl-1-methyl-1H-imidazol-4-yl)-6-(isopropylamino)nicotinamide] came in with an inhibition at 0.04 µM of 30 to 50% and an inhibition at 0.2 µM of 30 to 50%. For the same compound, on CDK4 [2], the activity at 0.01 µM lay in the range of 55 to 85% and the activity at 0.1 µM was in the range of 55 to 85%. Further, in the assay with MCF7 cells, the IC50 was below 50 nM.

In the case of `CC(=O)c1c(C)c2cnc(Nc3ccc(N4CCC(N(C)CC(=O)N5CCC(Nc6nc(NC(C)C)ccc6C(=O)Nc6ccc(N(C)C)nn6)CC5)CC4)cn3)nc2n(C2CCCC2)c1=O` [CPD-360, 2-((1-(N-(1-(6-((6-acetyl-8-cyclopentyl-5-methyl-7-oxo-7,8-dihydropyrido[2,3-d]pyrimidin-2-yl)amino)pyridin-3-yl)piperidin-4-yl)-N-methylglycyl)piperidin-4-yl)amino)-N-(6-(dimethylamino)pyridazin-3-yl)-6-(isopropylamino)nicotinamide], at CDK4 [1], the inhibition at 0.04 µM was below 30% and the inhibition at 0.2 µM was below 30%. In addition, on CDK4 [2], the activity at 0.01 µM lay within 55 to 85% and the activity at 0.1 µM lay within 55 to 85%. Moreover, the IC50 in the assay on MCF7 cells is below 50 nM.

For the compound `[2H]C([2H])([2H])Nc1ccc(C(=O)Nc2ccc(N(C)C)nn2)c(NC2CC3(C2)CN(C(=O)CN2CCC4(CCN(c5ccc(Nc6ncc7c(C)c(C(C)=O)c(=O)n(C8CCCC8)c7n6)nc5)C4)C2)C3)n1` (stereo not drawn) [CPD-384, 2-((2-(2-(7-(6-((6-acetyl-8-cyclopentyl-5-methyl-7-oxo-7,8-dihydropyrido[2,3-d]pyrimidin-2-yl)amino)pyridin-3-yl)-2,7-diazaspiro[4.4]nonan-2-yl)acetyl)-2-azaspiro[3.3]heptan-6-yl)amino)-N-(6-(dimethylamino)pyridazin-3-yl)-6-((methyl-d3)amino)nicotinamide], at CDK4 [1], the inhibition at 0.04 µM is below 30% and the inhibition at 0.2 µM is below 30%. Further, on CDK4 [2], the activity at 0.01 µM lay within 55 to 85% and the activity at 0.1 µM fell in the range of 55 to 85%. Moreover, the IC50 with MCF7 cells is below 50 nM.

For `CC(=O)c1c(C)c2cnc(Nc3ccc(CN4CCN(CC(=O)NCC56CC(Nc7nc(NC(C)C)ccc7C(=O)Nc7ccc(N(C)C)nn7)(C5)C6)CC4)cn3)nc2n(C2CCCC2)c1=O` [CPD-479, 2-((3-((2-(4-((6-((6-acetyl-8-cyclopentyl-5-methyl-7-oxo-7,8-dihydropyrido[2,3-d]pyrimidin-2-yl)amino)pyridin-3-yl)methyl)piperazin-1-yl)acetamido)methyl)bicyclo[1.1.1]pentan-1-yl)amino)-N-(6-(dimethylamino)pyridazin-3-yl)-6-(isopropylamino)nicotinamide], in the assay with Calu-1 cells, the IC50 is at most 10 nM.

Regarding `[2H]C([2H])([2H])Nc1ccc(C(=O)Nc2cn(C)c(C3CC3)n2)c(N[C@H]2CC[C@H](C(=O)N3CCC(N4CCN(c5ccc(Nc6ncc7c(C)c(C(C)=O)c(=O)n(C8CCCC8)c7n6)nc5)CC4)C3)CC2)n1` (stereo partly drawn) [CPD-480, 2-((4-(3-(4-(6-((6-acetyl-8-cyclopentyl-5-methyl-7-oxo-7,8-dihydropyrido[2,3-d]pyrimidin-2-yl)amino)pyridin-3-yl)piperazin-1-yl)pyrrolidine-1-carbonyl)cyclohexyl)amino)-N-(2-cyclopropyl-1-methyl-1H-imidazol-4-yl)-6-((methyl-d3)amino)nicotinamide], in the assay on Calu-1 cells, the IC50 was 10 to 50 nM.

Take `CC(=O)c1c(C)c2cnc(Nc3ccc(N4CCN(C5CCN(C(=O)NC6CCC(Nc7nc(NC(C)C)ccc7C(=O)Nc7ccc(N(C)C)nn7)CC6)C5)CC4)cn3)nc2n(C2CCCC2)c1=O` (stereo not drawn) [CPD-483, 2-((4-(3-(4-(6-((6-acetyl-8-cyclopentyl-5-methyl-7-oxo-7,8-dihydropyrido[2,3-d]pyrimidin-2-yl)amino)pyridin-3-yl)piperazin-1-yl)pyrrolidine-1-carboxamido)cyclohexyl)amino)-N-(6-(dimethylamino)pyridazin-3-yl)-6-(isopropylamino)nicotinamide]: the IC50 with Calu-1 cells is at least 50 nM.

On to `CC(=O)c1c(C)c2cnc(Nc3ccc(N4CC5(CC(N(C)CC(=O)N6CCC(Nc7nc(NC(C)C)ccc7C(=O)Nc7ccc(N(C)C)nn7)CC6)C5)C4)cn3)nc2n(C2CCCC2)c1=O` [CPD-484, 2-((1-(N-(2-(6-((6-acetyl-8-cyclopentyl-5-methyl-7-oxo-7,8-dihydropyrido[2,3-d]pyrimidin-2-yl)amino)pyridin-3-yl)-2-azaspiro[3.3]heptan-6-yl)-N-methylglycyl)piperidin-4-yl)amino)-N-(6-(dimethylamino)pyridazin-3-yl)-6-(isopropylamino)nicotinamide], for which, in the assay with Calu-1 cells, the IC50 is 10 to 50 nM.

Consider `CC(=O)c1c(C)c2cnc(Nc3ccc(N4CCC5(CCN(CC(=O)NCC67CC(Nc8nc(NC(C)C)ccc8C(=O)Nc8ccc(N(C)C)nn8)(C6)C7)C5)C4)cn3)nc2n(C2CCCC2)c1=O` (stereo not drawn) [CPD-485, 2-((3-((2-(7-(6-((6-acetyl-8-cyclopentyl-5-methyl-7-oxo-7,8-dihydropyrido[2,3-d]pyrimidin-2-yl)amino)pyridin-3-yl)-2,7-diazaspiro[4.4]nonan-2-yl)acetamido)methyl)bicyclo[1.1.1]pentan-1-yl)amino)-N-(6-(dimethylamino)pyridazin-3-yl)-6-(isopropylamino)nicotinamide], for which the IC50 with Calu-1 cells was at most 10 nM.

`[2H]C([2H])([2H])Nc1ccc(C(=O)Nc2ccc(N(C)C)nn2)c(NC2CC3(C2)CN(C(=O)CN2CC4(C2)CN(c2ccc(Nc5ncc6c(C)c(C(C)=O)c(=O)n(C7CCCC7)c6n5)nc2)C4)C3)n1` [CPD-489, 2-((2-(2-(6-(6-((6-acetyl-8-cyclopentyl-5-methyl-7-oxo-7,8-dihydropyrido[2,3-d]pyrimidin-2-yl)amino)pyridin-3-yl)-2,6-diazaspiro[3.3]heptan-2-yl)acetyl)-2-azaspiro[3.3]heptan-6-yl)amino)-N-(6-(dimethylamino)pyridazin-3-yl)-6-((methyl-d3)amino)nicotinamide]: in the assay with Calu-1 cells, the IC50 was at least 50 nM.
